Laboratory results taken from patent US12180193B2, “Accelerating fibrosarcoma protein degrading compounds and associated methods of use” (Arvinas Operations, Inc., priority 2020, dated 2024).

Columns and labels:
BRAF V600E = molecular target: T1, BRAF V600E (Homo sapiens, UniProt P15056, V600E); assay: Cellular assay of target protein degradation, T-Rex 293 cells stably transfected with HA-BRAF_V600E (HA immunofluorescence, high content imaging); assay type: cell-based; conditions: T-Rex 293 HA-BRAF V600E; for DC50: half maximal degradation, read-out: BRaf V600E DC50; for Dmax: maximum degradation observed
T1 construct: expressed in transfected cells
Procedure, shortened: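 Cells are plated with 1 ng/mL doxycycline and grown 24 h. Compound is then added (final 1 μM–0.1 nM, 0.1% DMSO) for another 24 h at 37 °C, followed by fixing, HA immunostaining and imaging to obtain DC50 and Dmax.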

BRAF G466V = molecular target: T2, BRAF G466V (Homo sapiens, UniProt P15056, G466V); assay: Cellular assay of target protein degradation, T-Rex 293 cells stably transfected with HA-BRAF G466V (HA immunofluorescence, high content imaging); assay type: cell-based; conditions: T-Rex 293 HA-BRAF G466V; for DC50: half maximal degradation, read-out: BRaf G466V DC50; for Dmax: maximum degradation observed
T2 construct: expressed in transfected cells
Procedure, shortened: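 Read-out is HA immunofluorescence by high content imaging, with Hoechst and phalloidin co-staining, giving DC50 and Dmax as a percentage of control. Compound exposure lasts 24 hours at 37° C over 30 nM to 3 pM in 0.1% DMSO, with doxycycline-induced HA-BRAF G466V.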

T2 sequence (P15056 whole entry G466V): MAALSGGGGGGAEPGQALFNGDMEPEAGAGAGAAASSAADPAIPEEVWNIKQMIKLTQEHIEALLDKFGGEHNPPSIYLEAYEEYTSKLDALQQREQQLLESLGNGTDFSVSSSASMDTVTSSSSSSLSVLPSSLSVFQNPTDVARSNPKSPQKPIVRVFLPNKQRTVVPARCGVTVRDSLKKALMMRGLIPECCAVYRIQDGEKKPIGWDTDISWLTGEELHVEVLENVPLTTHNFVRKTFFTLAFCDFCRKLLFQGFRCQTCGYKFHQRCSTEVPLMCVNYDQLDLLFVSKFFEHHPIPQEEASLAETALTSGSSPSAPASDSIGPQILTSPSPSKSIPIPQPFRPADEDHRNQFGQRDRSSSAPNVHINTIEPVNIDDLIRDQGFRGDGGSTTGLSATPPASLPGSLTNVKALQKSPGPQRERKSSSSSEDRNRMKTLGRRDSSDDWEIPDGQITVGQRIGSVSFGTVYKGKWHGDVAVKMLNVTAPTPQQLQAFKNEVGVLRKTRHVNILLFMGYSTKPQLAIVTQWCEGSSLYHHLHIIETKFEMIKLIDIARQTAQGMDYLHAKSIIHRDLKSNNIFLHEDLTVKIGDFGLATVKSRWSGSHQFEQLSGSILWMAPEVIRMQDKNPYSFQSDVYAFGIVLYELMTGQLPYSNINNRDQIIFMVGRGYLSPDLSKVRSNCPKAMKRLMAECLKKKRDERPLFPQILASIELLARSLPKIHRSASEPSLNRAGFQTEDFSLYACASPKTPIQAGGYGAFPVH
T1 sequence (P15056 whole entry V600E): as the sequence (P15056 whole entry G466V) above, with V466G, V600E counted along it

SMILES | DC50 (BRAF V600E) [nM] | Dmax (BRAF V600E) [%] | DC50 (BRAF G466V) [nM] | Dmax (BRAF G466V) [%]
O=C1CCC(N2Cc3cc(C4CCN(CCCc5ccc(-c6cnc7[nH]cc(C(=O)c8c(F)ccc(NS(=O)(=O)N9CC[C@@H](F)C9)c8F)c7c6)cc5)CC4)ccc3C2=O)C(=O)N1 (stereo partly drawn) [Compound 49, (3R)-N-(3-{5-[4-(3-{4-[2-(2,6-dioxopiperidin-3-yl)-1-oxo-2,3-dihydro-1H-isoindol-5-yl]piperidin-1-yl}propyl)phenyl]-1H-pyrrolo[2,3-b]pyridine-3-carbonyl}-2,4-difluorophenyl)-3-fluoropyrrolidine-1-sulfonamide] | 5 to 50 | 35 to 70 | < 1 | 35 to 70
COc1cc(CCCN2CC3(C2)CN(c2ccc(-c4cnc5[nH]cc(C(=O)c6c(F)ccc(NS(=O)(=O)N7CC[C@@H](F)C7)c6F)c5c4)cc2)C3)cc2c1C(=O)N(C1CCC(=O)NC1=O)C2 (stereo partly drawn) [Compound 22, (3R)-N-(3-{5-[4-(6-{3-[2-(2,6-dioxopiperidin-3-yl)-7-methoxy-1-oxo-2,3-dihydro-1H-isoindol-5-yl]propyl}-2,6-diazaspiro[3.3]heptan-2-yl)phenyl]-1H-pyrrolo[2,3-b]pyridine-3-carbonyl}-2,4-difluorophenyl)-3-fluoropyrrolidine-1-sulfonamide] | 5 to 50 | 35 to 70 | < 1 | 35 to 70
COc1cc([C@@H](O)CCN2CCN(c3ccc(-c4cnc5[nH]cc(C(=O)c6c(F)ccc(NS(=O)(=O)N7CC[C@@H](F)C7)c6F)c5c4)cc3)CC2)cc2c1C(=O)N([C@H]1CCC(=O)NC1=O)C2 (stereo in doubt) [Compound 295, (3R)-N-{3-[5-(4-{4-[(3S)-3-{2-[(3S)-2,6-dioxopiperidin-3-yl]-7-methoxy-1-oxo-2,3-dihydro-1H-isoindol-5-yl}-3-hydroxypropyl]piperazin-1-yl}phenyl)-1-pyrrolo[2,3-b]pyridine-3-carbonyl]-2,4-difluorophenyl}-3-fluoropyrrolidine-1-sulfonamide] | 50 to 500 | 35 to 70 | 1 to 10 | 35 to 70
O=C1CCC(N2Cc3cc(N4CC(CN5CCC(C6(c7ccc(-c8cnc9[nH]cc(C(=O)c%10c(F)ccc(NS(=O)(=O)N%11CC[C@@H](F)C%11)c%10F)c9c8)cc7)CC6)CC5)C4)ccc3C2=O)C(=O)N1 (stereo partly drawn) [Compound 304, (3R)-N-{3-[5-(4-{1-[1-({1-[2-(2,6-dioxopiperidin-3-yl)-1-oxo-2,3-dihydro-1H-isoindol-5-yl]azetidin-3-yl}methyl)piperidin-4-yl]cyclopropyl}phenyl)-1H-pyrrolo[2,3-b]pyridine-3-carbonyl]-2,4-difluorophenyl}-3-fluoropyrrolidie-1-sulfonamide] | 50 to 500 | 35 to 70 | 1 to 10 | 35 to 70
O=C1CCC(N2Cc3cc(N4CC(CN5CCN(C6(c7ncc(-c8cnc9[nH]cc(C(=O)c%10c(F)ccc(NS(=O)(=O)N%11CC[C@@H](F)C%11)c%10F)c9c8)cn7)CC6)CC5)C4)ccc3C2=O)C(=O)N1 (stereo partly drawn) [Compound 320, (3R)-N-{3-[5-(2-{1-[4-({1-[2-(2,6-dioxopiperidin-3-yl)-1-oxo-2,3-dihydro-1H-isoindol-5-yl]azetidin-3-yl}methyl)piperazin-1-yl]cyclopropyl}pyrimidin-5-yl)-1H-pyrrolo[2,3-b]pyridine-3-carbonyl]-2,4-difluorophenyl}-3-fluoropyrrolidine-1-sulfonamide] | 50 to 500 | 35 to 70 | 1 to 10 | 35 to 70
COc1cc(N2CCN(CC3CCN(c4ccc(-c5cnc6[nH]cc(C(=O)c7c(F)ccc(NS(=O)(=O)N8CC[C@@H](F)C8)c7F)c6c5)cc4)CC3)CC2)ccc1C(=O)N[C@H]1CCC(=O)NC1=O [Compound 359, 4-(4-{[1-(4-{3-[2,6-difluoro-3-({[(3R)-3-fluoropyrrolidin-1-yl]sulfonyl}amino)benzoyl]-1H-pyrrolo[2,3-b]pyridin-5-yl}phenyl)piperidin-4-yl]methyl}piperazin-1-yl)-N-[(3S)-2,6-dioxopiperidin-3-yl]-2-methoxybenzamide] | 5 to 50 | 35 to 70 | 1 to 10 | > 70
O=C1CC[C@@H](N2Cc3cc(OCCCN4CC5(C4)CN(c4ccc(-c6cnc7[nH]cc(C(=O)c8c(F)ccc(NS(=O)(=O)N9CC[C@@H](F)C9)c8F)c7c6)cc4)C5)ccc3C2=O)C(=O)N1 [Compound 81, (3R)-N-{3-[5-(4-{6-[3-({2-[(3R)-2,6-dioxopiperidin-3-yl]-1-oxo-2,3-dihydro-1H-isoindol-5-yl}oxy)propyl]-2,6-diazaspiro[3.3]heptan-2-yl}phenyl)-1H-pyrrolo[2,3-b]pyridine-3-carbonyl]-2,4-difluorophenyl}-3-fluoropyrrolidine-1-sulfonamide] | 5 to 50 | 35 to 70 | 1 to 10 | > 70
CCCS(=O)(=O)Nc1ccc(F)c(C(=O)c2c[nH]c3ncc(-c4ccc(N5CC6(CN(CC7CCN(c8cc9c(c(OC)c8)C(=O)N([C@@H]8CCC(=O)NC8=O)C9)CC7)C6)C5)cc4)cc23)c1F [Compound 238, N-{3-[5-(4-{6-[(1-{2-[(3R)-2,6-dioxopiperidin-3-yl]-7-methoxy-1-oxo-2,3-dihydro-1H-isoindol-5-yl}piperidin-4-yl)methyl]-2,6-diazaspiro[3.3]heptan-2-yl}phenyl)-1H-pyrrolo[2,3-b]pyridine-3-carbonyl]-2,4-difluorophenyl}propane-1-sulfonamide] | 5 to 50 | 35 to 70 | 1 to 10 | > 70

The next lines start with the values.

DC50 (BRAF V600E) [nM] | Dmax (BRAF V600E) [%] | DC50 (BRAF G466V) [nM] | Dmax (BRAF G466V) [%] | SMILES
< 5 | 35 to 70 | < 1 | > 70 | O=C1CC[C@H](N2Cc3cc(C4CCN(CC5CCN(c6ccc(-c7cnc8[nH]cc(C(=O)c9c(F)ccc(NS(=O)(=O)N%10CC[C@@H](F)C%10)c9F)c8c7)cc6F)CC5)CC4)ccc3C2=O)C(=O)N1 [Compound 87, (3R)-N-{3-[5-(4-{4-[(4-{2-[(3S)-2,6-dioxopiperidin-3-yl]-1-oxo-2,3-dihydro-1H-isoindol-5-yl}piperidin-1-yl)methyl]piperidin-1-yl}-3-fluorophenyl)-1H-pyrrolo[2,3-b]pyridine-3-carbonyl]-2,4-difluorophenyl}-3-fluoropyrrolidine-1-sulfonamide]
5 to 50 | 35 to 70 | 1 to 10 | > 70 | CNc1cc(-c2cnc3[nH]cc(C(=O)c4c(F)ccc(NS(=O)(=O)N5CC[C@@H](F)C5)c4F)c3c2)ccc1N1CCC(CN2CCC(c3ccc4c(c3)CN(C3CCC(=O)NC3=O)C4=O)CC2)CC1 (stereo partly drawn) [Compound 257, (3R)-N-[3-(5-{4-[4-({4-[2-(2,6-dioxopiperidin-3-yl)-1-oxo-2,3-dihydro-1H-isoindol-5-yl]piperidin-1-yl}methyl)piperidin-1-yl]-3-(methylamino)phenyl}-1H-pyrrolo[2,3-b]pyridine-3-carbonyl)-2,4-difluorophenyl]-3-fluoropyrrolidine-1-sulfonamide]
5 to 50 | 35 to 70 | 1 to 10 | > 70 | O=C1CC[C@H](N2Cc3cc(C[C@H](O)CN4CCC(c5ccc(-c6cnc7[nH]cc(C(=O)c8c(F)ccc(NS(=O)(=O)N9CC[C@@H](F)C9)c8F)c7c6)cc5)CC4)ccc3C2=O)C(=O)N1 [Compound 109, (3R)-N-{3-[5-(4-{1-[(2S)-3-{2-[(3S)-2,6-dioxopiperidin-3-yl]-1-oxo-2,3-dihydro-1H-isoindol-5-yl}-2-hydroxypropyl]piperidin-4-yl}phenyl)-1H-pyrrolo[2,3-b]pyridine-3-carbonyl]-2,4-difluorophenyl}-3-fluoropyrrolidine-1-sulfonamide]
< 5 | 35 to 70 | 1 to 10 | > 70 | O=C1CCC(N2Cc3cc(N4CCC(CN5CC6(CCN(c7ccc(-c8cnc9[nH]cc(C(=O)c%10c(F)ccc(NS(=O)(=O)N%11CC[C@@H](F)C%11)c%10F)c9c8)cn7)C6)C5)CC4)ccc3C2=O)C(=O)N1 (stereo partly drawn) [Compound 92, (3R)-N-[3-(5-{6-[2-({1-[2-(2,6-dioxopiperidin-3-yl)-1-oxo-2,3-dihydro-1H-isoindol-5-yl]piperidin-4-yl}methyl)-2,6-diazaspiro[3.4]octan-6-yl]pyridin-3-yl}-1H-pyrrolo[2,3-b]pyridine-3-carbonyl)-2,4-difluorophenyl]-3-fluoropyrrolidine-1-sulfonamide]
5 to 50 | 35 to 70 | 1 to 10 | > 70 | COc1cc(N2CC3(CN(CC4CCN(c5ccc(-c6cnc7[nH]cc(C(=O)c8c(F)ccc(NS(=O)(=O)N9CC[C@@H](F)C9)c8F)c7c6)cc5)CC4)C3)C2)cc(F)c1C(=O)NC1CCC(=O)NC1=O (stereo partly drawn) [Compound 348, 4-(6-{[1-(4-{3-[2,6-difluoro-3-({[(3R)-3-fluoropyrrolidin-1-yl]sulfonyl}amino)benzoyl]-1H-pyrrolo[2,3-b]pyridin-5-yl}phenyl)piperidin-4-yl]methyl}-2,6-diazaspiro[3.3]heptan-2-yl)-N-(2,6-dioxopiperidin-3-yl)-2-fluoro-6-methoxybenzamide]
5 to 50 | 35 to 70 | < 1 | > 70 | O=C1CCC(N2Cc3cc(C4CCN(C[C@H]5CCN(c6ccc(-c7cnc8[nH]cc(C(=O)c9c(F)ccc(NS(=O)(=O)N%10CC[C@@H](F)C%10)c9F)c8c7)cc6)C[C@H]5F)CC4)ccc3C2=O)C(=O)N1 (stereo partly drawn) [Compound 297, (3R)-N-[3-(5-{4-[(3S,4R)-4-({4-[2-(2,6-dioxopiperidin-3-yl)-1-oxo-2,3-dihydro-1H-isoindol-5-yl]piperidin-1-yl}methyl)-3-fluoropiperidin-1-yl]phenyl}-1H-pyrrolo[2,3-b]pyridine-3-carbonyl)-2,4-difluorophenyl]-3-fluoropyrrolidine-1-sulfonamide]
